Where two headings read alike, the source gives them in different places.
Columns and labels:
NRAS G12C = NRAS G12C (Homo sapiens, UniProt P01111+P62937, G12C); assay: Ras-Raf disruption / FRET / MOA assay (BRAF RBD); assay type: biochemical
Outline: (§1)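 Compound-induced Ras–Cyclophilin A ternary complex disrupting BRAF RBD binding, read as IC50 from reduced TR-FRET ratio relative to DMSO. Final: Ras-GMPPNP 12.5 nM, BRAF RBD 50 nM, Cyclophilin A 25 μM, top compound 30 μM (3-fold, 10 points); 3 h at 25 °C, then 1.5 h with detection antibodies.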

KRAS G12V = KRAS G12V (Homo sapiens, UniProt P01116+P62937, G12V); assay: Ras-Raf disruption / FRET / MOA assay (BRAF RBD); assay type: biochemical; settings: with Cyclophilin A
KRAS G12V, sequence (P01116 1-169 isoform P01116-2 G12V limits assumed): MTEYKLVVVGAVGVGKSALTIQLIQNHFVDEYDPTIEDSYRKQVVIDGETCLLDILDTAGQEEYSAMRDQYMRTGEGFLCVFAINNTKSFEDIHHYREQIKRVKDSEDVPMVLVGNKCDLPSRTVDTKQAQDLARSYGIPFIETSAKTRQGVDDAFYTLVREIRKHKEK
KRAS G12V, sequence (P62937 whole entry): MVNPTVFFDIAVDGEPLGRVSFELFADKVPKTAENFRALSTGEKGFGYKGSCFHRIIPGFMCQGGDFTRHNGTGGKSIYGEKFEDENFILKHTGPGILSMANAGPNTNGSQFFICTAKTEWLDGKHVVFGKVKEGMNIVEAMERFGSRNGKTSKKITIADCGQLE
Outline: as §1

KRAS G13C = KRAS G13C (Homo sapiens, UniProt P01116+P62937, G13C); assay: Ras-Raf disruption / FRET / MOA assay (BRAF RBD); assay type: biochemical; settings: with Cyclophilin A
KRAS G13C, sequence (P01116 1-169 isoform P01116-2 G13C limits assumed): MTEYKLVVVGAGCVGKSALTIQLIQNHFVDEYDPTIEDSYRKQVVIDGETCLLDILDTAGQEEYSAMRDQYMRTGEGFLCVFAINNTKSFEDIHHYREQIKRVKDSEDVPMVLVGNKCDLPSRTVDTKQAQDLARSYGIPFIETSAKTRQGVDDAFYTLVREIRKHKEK
KRAS G13C, sequence (P62937 whole entry): as the sequence (P62937 whole entry) above
Outline: as §1

KRAS G13D = KRAS G13D (Homo sapiens, UniProt P01116+P62937, G13D); assay: Ras-Raf disruption / FRET / MOA assay (BRAF RBD); assay type: biochemical; settings: with Cyclophilin A
KRAS G13D, sequence (P01116 1-169 isoform P01116-2 G13D limits assumed): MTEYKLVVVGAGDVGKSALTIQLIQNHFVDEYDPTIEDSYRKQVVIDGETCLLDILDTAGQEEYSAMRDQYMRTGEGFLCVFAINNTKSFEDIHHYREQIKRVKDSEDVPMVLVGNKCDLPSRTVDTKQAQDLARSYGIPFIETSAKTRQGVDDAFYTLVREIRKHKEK
KRAS G13D, sequence (P62937 whole entry): as the sequence (P62937 whole entry) above
Outline: as §1

KRAS G12D = KRAS G12D (Homo sapiens, UniProt P01116+P62937, G12D); assay: Ras-Raf disruption / FRET / MOA assay (BRAF RBD); assay type: biochemical; settings: with Cyclophilin A
KRAS G12D, sequence (P01116 1-169 isoform P01116-2 G12D limits assumed): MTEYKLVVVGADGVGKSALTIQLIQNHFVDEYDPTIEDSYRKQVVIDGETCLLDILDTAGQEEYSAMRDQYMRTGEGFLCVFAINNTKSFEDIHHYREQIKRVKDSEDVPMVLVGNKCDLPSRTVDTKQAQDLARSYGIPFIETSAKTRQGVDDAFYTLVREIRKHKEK
KRAS G12D, sequence (P62937 whole entry): as the sequence (P62937 whole entry) above
Outline: as §1

KRAS G12S = KRAS G12S (Homo sapiens, UniProt P01116+P62937, G12S); assay: Ras-Raf disruption / FRET / MOA assay (BRAF RBD); assay type: biochemical; settings: with Cyclophilin A
KRAS G12S, sequence (P01116 1-169 isoform P01116-2 G12S limits assumed): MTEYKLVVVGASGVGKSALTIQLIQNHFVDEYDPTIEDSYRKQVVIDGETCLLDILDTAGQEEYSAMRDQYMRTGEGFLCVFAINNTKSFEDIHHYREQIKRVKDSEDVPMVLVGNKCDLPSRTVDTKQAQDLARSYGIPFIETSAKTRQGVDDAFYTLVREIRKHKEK
KRAS G12S, sequence (P62937 whole entry): as the sequence (P62937 whole entry) above
Outline: as §1

KRAS WT = KRAS WT (Homo sapiens, UniProt P01116+P62937); assay: Ras-Raf disruption / FRET / MOA assay (BRAF RBD); assay type: biochemical; settings: with Cyclophilin A
KRAS WT, sequence (P01116 1-169 isoform P01116-2 limits assumed): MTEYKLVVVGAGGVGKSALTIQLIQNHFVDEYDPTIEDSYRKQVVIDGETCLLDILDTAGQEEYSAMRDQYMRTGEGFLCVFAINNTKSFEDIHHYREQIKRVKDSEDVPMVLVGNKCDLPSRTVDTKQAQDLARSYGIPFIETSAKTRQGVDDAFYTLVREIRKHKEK
KRAS WT, sequence (P62937 whole entry): as the sequence (P62937 whole entry) above
Outline: as §1

KRAS G12C = KRAS G12C (Homo sapiens, UniProt P01116+P62937, G12C); assay: Ras-Raf disruption / FRET / MOA assay (BRAF RBD); assay type: biochemical; settings: with Cyclophilin A
KRAS G12C, sequence (P01116 1-169 isoform P01116-2 G12C limits assumed): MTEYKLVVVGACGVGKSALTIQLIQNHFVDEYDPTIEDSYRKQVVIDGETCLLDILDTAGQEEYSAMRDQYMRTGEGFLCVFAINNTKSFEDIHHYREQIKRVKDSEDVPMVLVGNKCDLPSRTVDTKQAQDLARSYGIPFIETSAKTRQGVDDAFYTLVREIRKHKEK
KRAS G12C, sequence (P62937 whole entry): as the sequence (P62937 whole entry) above
Outline: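 TR-FRET read-out after 1.5 h with anti-His Eu-W1024 (10 nM) and anti-GST APC (50 nM), following 3 h at 25 °C of compound (top 30 μM, 3-fold, 10 points) with 25 μM Cyclophilin A, 12.5 nM GMPPNP-loaded K-Ras G12C and 50 nM BRAF RBD; IC50 reported.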

NCI-H358 (K-Ras G12C) = assay: CellTiter-Glo cell viability assay; assay type: cell-based; settings: Homo sapiens, NCI-H358, 120 h
Outline: (§2)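 Luminescent viability readout on day 5, plates first brought to room temperature for ~30 min; compounds added straight to plated RAS-mutant cells. Values expressed as percent of mean DMSO signal, curves fitted with a four-parameter logistic model.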

AsPC-1 (K-Ras G12D) [1] = assay: CellTiter-Glo cell viability assay; assay type: cell-based; settings: Homo sapiens, ASPC1, 120 h
Outline: as §2

AsPC-1 (K-Ras G12D) [2] = assay: Potency assay: pERK; assay type: cell-based; settings: Homo sapiens
[3] = NRAS G12C FRET data IC50, NRAS G12C
[4] = KRAS G12V FRET data IC50, Ras-Raf disruption
[5] = KRAS G13C FRET data IC50, Ras-Raf disruption
[6] = KRAS G13D FRET data IC50, Ras-Raf disruption
[7] = KRAS G12D FRET data IC50, Ras-Raf disruption
[8] = KRAS G12S FRET data IC50, Ras-Raf disruption
[9] = KRAS WT FRET data IC50, Ras-Raf disruption
[10] = KRAS G12C FRET data IC50, Ras-Raf disruption
[11] = read-out: H358 Cell Viability assay data IC50, K-Ras G12C, 5-day treatment
[12] = read-out: AsPC-1 Cell Viability assay data IC50, K-Ras G12D, 5-day treatment
[13] = NRAS G12C, read-out: NRAS G12C FRET data IC50
[14] = Ras-Raf disruption, read-out: KRAS G12V FRET data IC50
[15] = Ras-Raf disruption, read-out: KRAS G13C FRET data IC50
[16] = Ras-Raf disruption, read-out: KRAS G13D FRET data IC50
[17] = Ras-Raf disruption, read-out: KRAS G12D FRET data IC50
[18] = Ras-Raf disruption, read-out: KRAS G12S FRET data IC50
[19] = Ras-Raf disruption, read-out: KRAS WT FRET data IC50
[20] = Ras-Raf disruption, read-out: KRAS G12C FRET data IC50
[21] = K-Ras G12C, 5-day treatment, read-out: H358 Cell Viability assay data IC50
[22] = K-Ras G12D, 5-day treatment, read-out: AsPC-1 Cell Viability assay data IC50
[23] = ASPC1, AsPC-1 KRAS G12D, read-out: pERK EC50

NRAS G12C, sequence (P01111 whole entry G12C): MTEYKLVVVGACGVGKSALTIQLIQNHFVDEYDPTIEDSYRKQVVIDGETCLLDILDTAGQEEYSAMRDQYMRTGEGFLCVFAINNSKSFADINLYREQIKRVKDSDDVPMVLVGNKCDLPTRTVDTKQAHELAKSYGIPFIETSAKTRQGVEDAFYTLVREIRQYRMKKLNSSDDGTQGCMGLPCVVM
NRAS G12C, sequence (P62937 whole entry): as the sequence (P62937 whole entry) above

Compound | IC50 (NRAS G12C; [3]) [nM] | IC50 (KRAS G12V; [4]) [nM] | IC50 (KRAS G13C; [5]) [nM] | IC50 (KRAS G13D; [6]) [nM] | IC50 (KRAS G12D; [7]) [nM] | IC50 (KRAS G12S; [8]) [nM] | IC50 (KRAS WT; [9]) [nM] | IC50 (KRAS G12C; [10]) [nM] | IC50 (NCI-H358 (K-Ras G12C); [11]) [nM] | IC50 (AsPC-1 (K-Ras G12D) [1]; [12]) [nM] | EC50 (AsPC-1 (K-Ras G12D) [2]; ASPC1, read-out: pERK EC50) [nM] | other results
CCn1c(-c2cccnc2[C@H](C)OC)c2c3cc(ccc31)-c1cccc(c1)C[C@H](NC(=O)[C@H](C(C)C)N(C)C(=O)CN(C)C(=O)[C@H]1CN1)C(=O)N1CCC[C@H](N1)C(=O)OCC(C)(C)C2 [Example 107] | 100 to 1000 | 1000 to 10000 | 100 to 1000 | 1000 to 10000 | 1000 to 10000 | 1000 to 10000 | 1000 to 10000 | 100 to 1000 | 100 to 1000 | 1000 to 10000 | < 5000 | –
CCn1c(-c2cccnc2[C@H](C)OC)c2c3cc(ccc31)-c1cc(O)cc(c1)C[C@H](NC(=O)[C@H](C(C)C)N(C)C(=O)CN(C)C(=O)[C@@H]1CN1C(C)C)C(=O)N1CCC[C@H](N1)C(=O)OCC(C)(C)C2 (some centres unmarked) [Example 148] | < 10 | 10 to 100 | 10 to 100 | 10 to 100 | 10 to 100 | 10 to 100 | 10 to 100 | < 10 | < 10 | 100 to 1000 | < 5000 | –
CCn1c(-c2cccnc2[C@H](C)OC)c2c3cc(ccc31)-c1cc(O)cc(c1)C[C@H](NC(=O)[C@H](C(C)C)N(C)C(=O)CN(C)C(=O)C1CN1CCOC)C(=O)N1CCC[C@H](N1)C(=O)OCC(C)(C)C2 (some centres unmarked) [Example 90] | < 10 | 10 to 100 | 10 to 100 | 100 to 1000 | 100 to 1000 | 10 to 100 | 10 to 100 | < 10 | < 10 | 100 to 1000 | < 5000 | –
CCn1c(-c2cccnc2[C@H](C)OC)c2c3cc(ccc31)-c1cc(O)cc(c1)C[C@H](NC(=O)[C@H](C(C)C)N(C)C(=O)CN(C)C(=O)[C@H]1CN1CCCOC)C(=O)N1CCC[C@H](N1)C(=O)OCC(C)(C)C2 (some centres unmarked) [Example 201] | < 10 | 10 to 100 | 10 to 100 | 100 to 1000 | 100 to 1000 | 10 to 100 | 10 to 100 | < 10 | < 10 | 100 to 1000 | < 5000 | –
CCn1c(-c2cccnc2[C@H](C)OC)c2c3cc(ccc31)-c1cc(O)cc(c1)C[C@H](NC(=O)[C@H](C1CCCC1)N(C)C(=O)CN(C)C(=O)[C@H]1CN1)C(=O)N1CCC[C@H](N1)C(=O)OCC(C)(C)C2 [Example 95] | < 10 | 10 to 100 | 10 to 100 | 10 to 100 | 10 to 100 | 10 to 100 | 10 to 100 | < 10 | < 10 | 10 to 100 | < 5000 | –
CCn1c(-c2cccnc2[C@H](C)OC)c2c3cc(ccc31)-c1cc(O)cc(c1)C[C@H](NC(=O)[C@H](C(C)C)N(C)C(=O)CN(C)C(=O)[C@@H]1CN1CCCOC)C(=O)N1CCC[C@H](N1)C(=O)OCC(C)(C)C2 (some centres unmarked) [Example 137] | < 10 | 10 to 100 | 10 to 100 | 10 to 100 | 10 to 100 | 10 to 100 | 10 to 100 | < 10 | < 10 | 100 to 1000 | < 5000 | –
CCn1c(-c2cccnc2[C@H](C)OC)c2c3cc(ccc31)-c1cc(O)cc(c1)C[C@H](NC(=O)[C@H](C1CCCC1)N(C)C(=O)[C@H]1CCN(C[C@H]3CN3)C1=O)C(=O)N1CCC[C@H](N1)C(=O)OCC(C)(C)C2 [Example 58] | – | – | – | – | – | – | – | – | – | – | – | IC50 (NRAS G12C; [13]): < 10 nM; IC50 (KRAS G12V; [14]): 10 to 100 nM; IC50 (KRAS G13C; [15]): 10 to 100 nM; IC50 (KRAS G13D; [16]): 10 to 100 nM; IC50 (KRAS G12D; [17]): 100 to 1000 nM; IC50 (KRAS G12S; [18]): 10 to 100 nM; IC50 (KRAS WT; [19]): 10 to 100 nM; IC50 (KRAS G12C; [20]): < 10 nM; IC50 (NCI-H358 (K-Ras G12C); [21]): < 10 nM; IC50 (AsPC-1 (K-Ras G12D) [1]; [22]): 100 to 1000 nM; EC50 (AsPC-1 (K-Ras G12D) [2]; [23]): < 5000 nM
CCn1c(-c2cccnc2[C@H](C)OC)c2c3cc(ccc31)-c1cccc(c1)C[C@H](NC(=O)[C@H](C(C)C)N(C)C(=O)[C@H]1CCN(C(=O)[C@H]3CN3)C1)C(=O)N1CCC[C@H](N1)C(=O)OCC(C)(C)C2 [Example 106] | – | – | – | – | – | – | – | – | – | – | – | IC50 (NRAS G12C; [13]): 10 to 100 nM; IC50 (KRAS G12V; [14]): 1000 to 10000 nM; IC50 (KRAS G13C; [15]): 100 to 1000 nM; IC50 (KRAS G13D; [16]): 1000 to 10000 nM; IC50 (KRAS G12D; [17]): 1000 to 10000 nM; IC50 (KRAS G12S; [18]): 1000 to 10000 nM; IC50 (KRAS WT; [19]): 1000 to 10000 nM; IC50 (KRAS G12C; [20]): 10 to 100 nM; IC50 (NCI-H358 (K-Ras G12C); [21]): < 10 nM; IC50 (AsPC-1 (K-Ras G12D) [1]; [22]): 1000 to 10000 nM; EC50 (AsPC-1 (K-Ras G12D) [2]; [23]): < 5000 nM
CCn1c(-c2cnccc2COC)c2c3cc(ccc31)-c1cc(O)cc(c1)C[C@H](NC(=O)[C@H](C(C)C)N(C)C(=O)CN(C)C(=O)[C@@H]1N[C@@H]1C(=O)OC)C(=O)N1CCC[C@H](N1)C(=O)OCC(C)(C)C2 [Example 49] | 10 to 100 | 100 to 1000 | 10 to 100 | 100 to 1000 | 100 to 1000 | 100 to 1000 | 100 to 1000 | 10 to 100 | 1000 to 10000 | 1000 to 10000 | < 5000 | –
CCn1c(-c2cccnc2[C@H](C)OC)c2c3cc(ccc31)-c1cc(O)cc(c1)C[C@H](NC(=O)[C@H](C(C)C)N(C)C(=O)CN(C)C(=O)[C@@H]1CN1CCOC)C(=O)N1CCC[C@H](N1)C(=O)OCC(C)(C)C2 (some centres unmarked) [Example 160] | < 10 | 10 to 100 | 10 to 100 | 100 to 1000 | 100 to 1000 | 10 to 100 | 10 to 100 | 10 to 100 | < 10 | 100 to 1000 | < 5000 | –
